Experimental data from patent US10722442B2, “Skin brightening composition comprising novel ginsenoside” (AMOREPACIFIC CORPORATION, priority 2018, dated 2020).

Legend:
[1] = biological target: Mushroom-derived tyrosinase; test: Inhibitory effect of tyrosinase activity; format: biochemical; conditions: L-tyrosine substrate, 20 minutes at 37° C., absorbance at 490 nm
Method: In order to compare the skin brightening effects of ginsenosides isolated from the ginseng seed extract, the inhibitory effect of the tyrosinase activity was evaluated as follows. Mushroom-derived tyrosinase and tyrosine were obtained from Sigma Chemical. […] Tyrosinase activity was assessed by measuring the absorbance at 490 nm using a microplate reader (Bio-Rad 3550, Richmond, Calif., U.S.A.) after an enzyme reaction for 20 minutes at 37° C.

[2] = tested on: Mel-Ab cell line; test: Melanin production inhibition (Dooley's method); format: cell-based, C57BL/6; conditions: Mel-Ab cells, after 5 days, absorbance at 400 nm

SMILES	IC50 (ppm), inhibitory effect of tyrosinase activity [1]	IC50 (ppm), concentration required to reduce melanin production in melanocytes by half [2]
OC[C@H]1O[C@@H](Oc2ccc(O)cc2)[C@H](O)[C@@H](O)[C@@H]1O [Arbutin, arbutin]	149 ppm	–
CC(C)=CCC[C@](C)(O[C@@H]1O[C@H](CO)[C@@H](O)[C@H](O)[C@H]1O)[C@H]1CC[C@]2(C)[C@@H]1[C@H](O)C[C@@H]1[C@@]3(C)CC[C@H](O)C(C)(C)[C@@H]3[C@@H](O[C@@H]3O[C@H](CO)[C@@H](O)[C@H](O)[C@H]3O)C[C@]12C [GS#01, ginsenoside Rg1]	23 ppm	37 ppm
CC(C)=CCC[C@](C)(O)[C@H]1CC[C@]2(C)[C@@H]1[C@H](O)C[C@@H]1[C@@]3(C)CC[C@H](O)C(C)(C)[C@@H]3[C@@H](O[C@@H]3O[C@H](CO)[C@@H](O)[C@H](O)[C@H]3O[C@@H]3O[C@@H](C)[C@H](O)[C@@H](O)[C@H]3O)C[C@]12C [GS#02, ginsenoside Rg2]	30 ppm	35 ppm
CC(C)=CCC[C@](C)(O[C@@H]1O[C@H](CO)[C@@H](O)[C@H](O)[C@H]1O)[C@H]1CC[C@]2(C)[C@@H]1[C@H](O)C[C@@H]1[C@@]3(C)CC[C@H](O)C(C)(C)[C@@H]3[C@@H](O[C@@H]3O[C@H](CO)[C@@H](O)[C@H](O)[C@H]3O[C@@H]3O[C@@H](C)[C@H](O)[C@@H](O)[C@H]3O)C[C@]12C [GS#03, ginsenoside Re]	27 ppm	39 ppm
CC(C)=CCC[C@](C)(O[C@@H]1O[C@H](CO)[C@@H](O)[C@H](O)[C@H]1O)[C@H]1CC[C@]2(C)[C@@H]1[C@H](O)C[C@@H]1[C@@]3(C)CC[C@H](O[C@@H]4O[C@H](CO)[C@@H](O)[C@H](O)[C@H]4O[C@@H]4O[C@H](CO)[C@@H](O)[C@H](O)[C@H]4O)C(C)(C)[C@@H]3CC[C@]12C [GS#04, ginsenoside Rd]	31 ppm	38 ppm
CC(C)=CCC[C@](C)(O[C@@H]1O[C@H](CO[C@@H]2O[C@H](CO)[C@@H](O)[C@H](O)[C@H]2O)[C@@H](O)[C@H](O)[C@H]1O)[C@H]1CC[C@]2(C)[C@@H]1[C@H](O)C[C@@H]1[C@@]3(C)CC[C@H](O[C@@H]4O[C@H](CO)[C@@H](O)[C@H](O)[C@H]4O[C@@H]4O[C@H](CO)[C@@H](O)[C@H](O)[C@H]4O)C(C)(C)[C@@H]3CC[C@]12C [GS#05, ginsenoside Rb1]	47 ppm	57 ppm
CC(C)=CCC[C@](C)(O[C@@H]1O[C@H](CO[C@@H]2OC[C@H](O)[C@H](O)[C@H]2O)[C@@H](O)[C@H](O)[C@H]1O)[C@H]1CC[C@]2(C)[C@@H]1[C@H](O)C[C@@H]1[C@@]3(C)CC[C@H](O[C@@H]4O[C@H](CO)[C@@H](O)[C@H](O)[C@H]4O[C@@H]4O[C@H](CO)[C@@H](O)[C@H](O)[C@H]4O)C(C)(C)[C@@H]3CC[C@]12C [GS#06, ginsenoside Rb2]	53 ppm	54 ppm
O=c1cc(CO)occ1O [Kojic acid, kojic acid]	–	39 ppm
